Data as given in PMC3358478 (Chemical Research in Toxicology, 2012).
“Also recorded” adds a separate entry of the source.

Assays:
Human P450 1A1 = molecular target: T1, Human P450 1A1 (Homo sapiens, UniProt P04798); assay: Ethoxyresorufin O-deethylation; type: biochemical; details: for kinact: read-out: limiting Kinact on P450 1A1
T1 sequence (P04798 1-512): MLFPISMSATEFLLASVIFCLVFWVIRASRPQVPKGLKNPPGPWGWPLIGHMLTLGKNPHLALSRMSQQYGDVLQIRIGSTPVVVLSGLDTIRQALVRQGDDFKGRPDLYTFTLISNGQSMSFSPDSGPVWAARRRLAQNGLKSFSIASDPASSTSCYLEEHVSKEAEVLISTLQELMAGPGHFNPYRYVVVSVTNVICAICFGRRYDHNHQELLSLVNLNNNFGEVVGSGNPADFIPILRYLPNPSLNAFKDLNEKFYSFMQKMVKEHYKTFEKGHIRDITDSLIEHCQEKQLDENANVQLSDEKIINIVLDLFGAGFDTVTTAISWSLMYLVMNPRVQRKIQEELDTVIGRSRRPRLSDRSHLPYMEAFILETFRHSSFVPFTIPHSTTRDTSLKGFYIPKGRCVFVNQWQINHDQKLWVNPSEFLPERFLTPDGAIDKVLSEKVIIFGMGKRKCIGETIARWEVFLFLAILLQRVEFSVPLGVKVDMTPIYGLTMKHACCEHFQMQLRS

Human P450 1A2 = molecular target: T2, Human P450 1A2 (Homo sapiens, UniProt P05177); assay: Methoxyresorufin O-demethylation; type: biochemical; details: for difference in the IC50 values, more effective on P450 1A2 than P450 1A1: IC50 1A1 vs 1A2; for inhibition behavior toward P450 1A2: concentration- and NADPH-dependence
T2 sequence (P05177 1-516): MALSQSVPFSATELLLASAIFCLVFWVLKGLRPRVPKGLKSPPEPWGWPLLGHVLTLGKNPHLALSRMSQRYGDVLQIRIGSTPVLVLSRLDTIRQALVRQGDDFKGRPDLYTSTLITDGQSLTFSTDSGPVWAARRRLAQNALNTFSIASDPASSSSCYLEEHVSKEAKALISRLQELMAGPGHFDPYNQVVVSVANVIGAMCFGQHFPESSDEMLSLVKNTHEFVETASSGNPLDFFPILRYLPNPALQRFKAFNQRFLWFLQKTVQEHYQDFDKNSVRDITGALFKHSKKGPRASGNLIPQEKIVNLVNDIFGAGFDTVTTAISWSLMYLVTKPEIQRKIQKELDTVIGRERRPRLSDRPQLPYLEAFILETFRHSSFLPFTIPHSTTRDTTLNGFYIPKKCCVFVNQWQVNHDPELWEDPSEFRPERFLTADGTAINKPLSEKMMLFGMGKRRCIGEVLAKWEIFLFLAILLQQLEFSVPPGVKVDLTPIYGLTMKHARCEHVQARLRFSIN

rat P450 2B1 = molecular target: T3, rat P450 2B1 (Rattus norvegicus, UniProt P00176); assay: Pentoxyresorufin O-depentylation; type: biochemical; details: for inhibition behavior toward P450 2B1: time-dependence
T3 sequence (P00176 1-491): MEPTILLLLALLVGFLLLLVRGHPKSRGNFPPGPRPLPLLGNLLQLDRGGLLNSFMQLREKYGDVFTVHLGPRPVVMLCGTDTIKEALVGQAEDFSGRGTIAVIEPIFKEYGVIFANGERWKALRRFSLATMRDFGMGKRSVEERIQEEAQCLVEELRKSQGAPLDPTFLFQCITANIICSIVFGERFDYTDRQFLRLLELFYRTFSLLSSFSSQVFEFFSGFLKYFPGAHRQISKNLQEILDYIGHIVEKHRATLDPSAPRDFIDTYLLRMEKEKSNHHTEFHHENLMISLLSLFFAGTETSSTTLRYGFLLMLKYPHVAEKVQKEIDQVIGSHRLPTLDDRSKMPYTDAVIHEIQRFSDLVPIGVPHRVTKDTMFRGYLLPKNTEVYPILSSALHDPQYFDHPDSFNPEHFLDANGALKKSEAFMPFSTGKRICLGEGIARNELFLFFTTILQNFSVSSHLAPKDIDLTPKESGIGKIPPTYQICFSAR

Human P450 2A6 = molecular target: T4, Human P450 2A6 (Homo sapiens, UniProt P11509); assay: Coumarin 7-hydroxylation assay, P450 2A6 inhibition
T4 sequence (P11509 1-494): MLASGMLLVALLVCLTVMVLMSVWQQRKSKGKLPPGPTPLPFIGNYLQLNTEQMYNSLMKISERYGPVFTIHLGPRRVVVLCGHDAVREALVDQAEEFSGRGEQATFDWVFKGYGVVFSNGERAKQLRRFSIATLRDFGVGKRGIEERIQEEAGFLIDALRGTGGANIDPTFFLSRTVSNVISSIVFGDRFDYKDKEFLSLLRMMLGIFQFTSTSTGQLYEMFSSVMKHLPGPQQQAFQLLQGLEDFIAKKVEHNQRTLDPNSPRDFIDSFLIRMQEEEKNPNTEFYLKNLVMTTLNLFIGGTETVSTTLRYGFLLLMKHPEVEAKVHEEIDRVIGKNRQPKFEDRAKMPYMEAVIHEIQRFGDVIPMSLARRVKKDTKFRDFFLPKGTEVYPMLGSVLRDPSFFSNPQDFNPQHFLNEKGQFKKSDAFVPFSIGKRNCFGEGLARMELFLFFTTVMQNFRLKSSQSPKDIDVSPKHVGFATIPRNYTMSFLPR

| SMILES | Ki (Human P450 1A1) | kinact (Human P450 1A1) | Ki (Human P450 1A2) | difference in the IC50 values, more effective on P450 1A2 than P450 1A1 (Human P450 1A2) | IC50 (rat P450 2B1) | inhibition behavior toward P450 2B1 (rat P450 2B1) | IC50 (Human P450 2A6) | inhibition behavior toward P450 1A2 (Human P450 1A2) | kinact (rat P450 2B1; read-out: limiting Kinact on P450 2B1) | inhibition behavior toward P450 1A1 (Human P450 1A1; time-, concentration- and NADPH-dependence) | inhibition activity for P450 2B1 (rat P450 2B1; at the dose of 50 μM) | inhibition activity for P450 2A6 (Human P450 2A6; at the dose of 50 μM) | potency toward P450 1A1 relative to P450 1A2 (Human P450 1A1; IC50 1A2 vs 1A1) |
| --- | --- | --- | --- | --- | --- | --- | --- | --- | --- | --- | --- | --- | --- |
| C#Cc1ccc2c(C(F)(F)F)cc(=O)oc2c1 [7E4TFC, 7-Ethynyl-4-(trifluoromethyl)coumarin] | 16.8 µM | 0.00383 s⁻¹ | 3.15 µM | around 5 fold | 15.1 µM | competitive inhibitor | > 50 µM |  |  |  |  |  |  |
| C#Cc1ccc2c(C)cc(=O)oc2c1 [7E4MC, 7-Ethynyl-4-methylcoumarin] | 38.6 µM | 0.0035 s⁻¹ | 2.65 µM | around 5 fold | > 50 µM |  | > 50 µM |  |  |  |  |  |  |
| C#Cc1ccc2c(-c3ccccc3)c(C)c(=O)oc2c1 [7E3M4PC, 7-Ethynyl-3-methyl-4-phenylcoumarin] | 3.58 µM | 0.00617 s⁻¹ |  |  | 9.16 µM | sole mechanism-based inhibitor | > 50 µM | does not show a time-dependent loss of enzymatic activity; also recorded: sole competitive inhibitor; also recorded: does not show time- and NADPH-dependent inhibition; also recorded: completely competitive | 0.00483 s⁻¹ |  |  |  |  |
| C#Cc1ccc2c(C)c(C)c(=O)oc2c1C [7ETMC, 7-Ethynyl-3,4,8-trimethylcoumarin] | 0.57 µM | 0.00567 s⁻¹ | 0.87 µM |  | > 50 µM |  | > 50 µM |  |  | time-dependent inhibition; also recorded: NADPH-dependent manner | did not show any inhibition activity | did not show any inhibition activity |  |
| C#Cc1ccc2ccc(=O)oc2c1 [7EC, 7-Ethynylcoumarin] |  |  | 5.83 µM |  | > 50 µM |  | > 50 µM |  |  |  |  |  |  |
| C#Cc1ccc2cc(-c3ccccc3)c(=O)oc2c1 [7E3PC, 7-Ethynyl-3-phenylcoumarin] | 0.38 µM | 0.00417 s⁻¹ | 0.65 µM |  | > 50 µM |  | > 50 µM | mainly results from competitive inhibition and not from mechanism-based inhibition |  |  |  |  | about five times more potent |
| C#Cc1cc2oc(=O)ccc2cc1OC [7E6MOC, 7-Ethynyl-6-methoxycoumarin] | 104 µM | 0.00567 s⁻¹ | 78.9 µM |  | > 50 µM |  | > 50 µM |  |  |  |  |  |  |
| C#Cc1ccc2c(C)c(-c3ccccc3)c(=O)oc2c1 [7E4M3PC, 7-Ethynyl-4-methyl-3-phenylcoumarin] | 5.16 µM | 0.00517 s⁻¹ | 0.83 µM |  | > 50 µM |  | > 50 µM |  |  |  |  |  |  |
